Read-outs that look alike come from different tables or passages of the source.
What was measured:
[1] = tested on: AthDHS1 and AthDHS2 mixtures; experiment: DHS assay using mixtures of AthDHS1 and AthDHS2 recombinant enzymes; format: biochemical, Arabidopsis thaliana; settings: 1 mM effector; molar ratios 0, 0.25, 0.5, 0.75, 1
Method: Next, we thought that the presence of non-inhibited DHS isoforms (e.g. AthDHS1) may affect the AAA sensitivity of AthDHS2, given that AthDHSs are known to function as tetrameric or dimeric forms ([Suzich et al., 1985]; [Pinto et al., 1986]; [Webby et al., 2005]). To test this, the recombinant enzymes of AAA non-inhibited AthDHS1 and AAA-inhibited AthDHS2 were mixed with different ratios (0, 0.25, 0.5, 0.75, and 1) and DHS activity assays were conducted with different inhibitors. Based on the kinetic parameters and the regulatory behaviors of individual AthDHSs, the expected level of DHS activity was first calculated and plotted (dotted lines in Figure 5, D, see the “Materials and methods” section). […] Similar results were obtained for the AthDHS2 and AthDHS3 mixture (Figure 5, E).
Unless otherwise noted, DHS enzymatic activity was monitored as previously described ([Liu et al., 2008]), with several optimizations for high-throughput assays with eight-strip PCR tubes and a thermal cycler. The enzyme solution (7.7 µL) containing 50 mM HEPES (pH 7.4) was preincubated with an effector molecule(s) at room temperature for 10 min. For assays using recombinant protein and enzyme fraction isolated from plant leaves, 0.01–0.05 µg and approximately 50 µg of proteins were used, respectively. After adding 0.5 µL of 0.1 M DTT, the samples were further incubated at room temperature for 15 min. […] The enzyme reaction was started by adding 6.8 µL of the substrate solution, then incubated at 37°C for 20 min, and terminated by adding 30 µL of 0.6 M trichloroacetic acid. After brief centrifugation, 5 µL of 200 mM NaIO4 (sodium meta-periodate) in 9 N H3PO4 was added to oxidize the enzymatic product and incubate at 25°C for 20 min. […] The absorbance of the pink supernatant was read at 549 nm with the microplate reader (Infinite 200 PRO, TECAN, Männedorf, Switzerland) to calculate DAHP production with the molar extinction coefficient at 549 nm (ε = 549 nm) of 4.5 × 10^4/M/cm. […]

[2] = tested on: root growth of Arabidopsis Col-0 and dhs mutants; experiment: Chemical feeding experiment, root length of 10-day-old seedlings; format: in vivo, Arabidopsis thaliana; settings: for IC50: Arabidopsis thaliana
Method: (§1) Chemical feeding experiments were carried out as described previously ([de Oliveira et al., 2019]) with some modifications. Seedlings were grown on agar plates containing 0.5 MS with 1% sucrose, 0.8% agar, and 2.5 mM MES at pH 5.7 in the growth chamber where we grew other plants in soil. AAAs and/or shikimate were added to autoclaved media after cooling down to temperatures below 55°C. Plants were grown on the same plate side by side to minimize environmental effects, and multiple plates were prepared to obtain replications. Root lengths of 10-day-old seedlings were quantified by ImageJ.

AthDHS1 = biological target: T1, AthDHS1 (Arabidopsis thaliana, UniProt P29976); experiment: DHS enzymatic activity assay with recombinant AthDHS1; format: biochemical; settings: for effect on AthDHS1 activity (in words): 1 mM effector; for IC50: varied effector concentrations, read-out: IC50 of AthDHS1 inhibition
T1 construct: AthDHS1; residues 49–525; hexa-histidine; made in house; host or cells: E. coli Rosetta2 (DE3), pET28a
Method: (§2) Unless otherwise noted, DHS enzymatic activity was monitored as previously described ([Liu et al., 2008]), with several optimizations for high-throughput assays with eight-strip PCR tubes and a thermal cycler. The enzyme solution (7.7 µL) containing 50 mM HEPES (pH 7.4) was preincubated with an effector molecule(s) at room temperature for 10 min. For assays using recombinant protein and enzyme fraction isolated from plant leaves, 0.01–0.05 µg and approximately 50 µg of proteins were used, respectively. After adding 0.5 µL of 0.1 M DTT, the samples were further incubated at room temperature for 15 min. […] The enzyme reaction was started by adding 6.8 µL of the substrate solution, then incubated at 37°C for 20 min, and terminated by adding 30 µL of 0.6 M trichloroacetic acid. After brief centrifugation, 5 µL of 200 mM NaIO4 (sodium meta-periodate) in 9 N H3PO4 was added to oxidize the enzymatic product and incubate at 25°C for 20 min. To stop the oxidation reaction, 20 µL of 0.75 M NaAsO2 (sodium arsenite), which was dissolved in 0.5 M Na2SO4 and 0.05 M H2SO4, was immediately mixed. After 5 min of incubation at room temperature, one-third of the sample solution was transferred to a new tube to be mixed with 50 µL of 40 mM thiobarbituric acid and incubated at 99°C for 15 min in a thermal cycler. Developed pink chromophore was extracted by putting the final solutions with 600 µL of cyclohexanone in eight-strip solvent-resistant plastic tubes, mixing vigorously and centrifuging them at 4,500 × g for 3 min to separate water- and cyclohexanone-based layers. The absorbance of the pink supernatant was read at 549 nm with the microplate reader (Infinite 200 PRO, TECAN, Männedorf, Switzerland) to calculate DAHP production with the molar extinction coefficient at 549 nm (ε = 549 nm) of 4.5 × 10^4/M/cm. Reaction mixtures with boiled enzyme or without any substrates were run in parallel and used as negative controls to estimate the background signal for recombinant enzymes or enzymatic fraction from plant tissues, respectively.
(§3) For determination of kinetic parameters, the data of enzymatic activities measured in the presence of various concentration of substrates were calculated with the Michaelis–Menten equation in Graphpad Prism 6 (GraphPad Software, San Diego, CA, USA).

AthDHS2 = biological target: T2, AthDHS2 (Arabidopsis thaliana, UniProt Q00218); experiment: DHS enzymatic activity assay with recombinant AthDHS2; format: biochemical; settings: for IC50: varied effector concentrations, read-out: IC50 of AthDHS2 inhibition
T2 construct: AthDHS2; residues 34–507; hexa-histidine; made in house; host or cells: E. coli Rosetta2 (DE3), pET28a

[3] = tested on: carrot (Daucus carota) DHS; set-up: method as in Suzich et al., 1985; settings: ref Suzich et al., 1985; cited from earlier work
[4] = tested on: DHS activities from maize (Zea mays) shoots; set-up: method as in Graziana and Boudet, 1980; settings: 1 mM; ref Graziana and Boudet, 1980; cited from earlier work
AthDHS3 = AthDHS3 (Arabidopsis thaliana, UniProt Q9SK84); experiment: DHS enzymatic activity assay with recombinant AthDHS3; format: biochemical; settings: for effect on AthDHS3 activity (in words): 1 mM effector
Method: as §2, §3

[5] = tested on: Arabidopsis Col-0 and dhs mutants; format: in vivo, Arabidopsis thaliana; settings: 300 µM, 14 days after germination
Method: as §1

[6] = tested on: shikimate accumulation in Col-0 and dhs mutants; experiment: Shikimate content with and without Tyr and/or glyphosate treatment; format: in vivo, Arabidopsis thaliana; settings: 300 µM, without glyphosate; all genotypes except dhs1
Method: Approximately 50–80 mg of fully expanded mature leaves were pooled from multiple plants at the same developmental stages and ground in 800 µL of extraction buffer (v/v 2:1 of methanol and chloroform with 2 µg/mL isovitexin [Millipore-Sigma], 100 µM norvaline [Thermo Fisher Scientific], and 1.25 µg/mL Tocol [Matreya LLC, State College, PA, USA] for internal standards for soluble metabolite analysis by LC–MS and GC–MS and tocopherol analysis by GC–MS, respectively), using 1600 MiniG Tissue Homogenizer (SPEX SamplePrep, Metuchen, USA) and 3-mm glass beads. After adding 600 µL of H2O and then 250 µL of chloroform, polar phase containing amino acids, and non‐polar phase containing tocopherols were separated by centrifugation, dried in new tubes. To detect Trp and AAA-derived metabolites, LC–MS analysis was carried out as previous described with some modification ([Alseekh et al., 2015]). The dried metabolites were resuspended in 70 µL of 80% LC–MS-grade methanol. Two microliters of the sample was injected onto a HSS T3 C18 reversed phase column (100 × 2.1 mm i.d., 1.8-μm particle size; Waters, Milford, CT, USA) and eluted using a 20-min gradient comprising 0.1% formic acid in LC–MS-grade water (solvent A) and 0.1% formic acid in LC–MS-grade acetonitrile (solvent B) at a flow rate of 0.4 mL/min and column temperature of 40°C. The binary linear gradient with following ratios of solvent B was used: 0–1 min, 1%; 1–13 min, 1%–35%; 13–14.5 min, 35%–70%; 14.5–15.5 min, 70%–99%, 15.5–17 min, 99%; 17–17.5 min, 99%–[…]; 17.5–20 min, 1%. The spectra were recorded using full scan mode of negative ion detection, covering a mass range from m/z 100 to 1,500. The resolution was set to 25,000 and the maximum scan time was set to 250 ms. The sheath gas was set to a value of 60, while the auxiliary gas was set to 35. The transfer capillary temperature was set to 150°C, while the heater temperature was adjusted to 300°C. The spray voltage was fixed at 3 kV, with a capillary voltage and a skimmer voltage of 25 and 15 V, respectively. Retention times, MS spectra, and associated peak intensities were extracted from the raw files using the Xcalibur software (Thermo Fisher Scientific). […] For anthocyanin quantification, the polar phase isolated for amino acid analysis was diluted 10 times with water in a new tube. […] Shikimate level was spectrometrically determined based on previous literatures ([Shaner et al., 2005]; [Sharkhuu et al., 2014]). […] After stopping the reaction by adding 100 µL of a termination solution containing 0.6 N sodium hydroxide and 0.22 M sodium sulfite, the absorption at 380 nm was immediately measured with the microplate reader. Shikimate concentration was determined by comparing with a dilution series of the shikimate standards.

[7] = tested on: DHS activities from pea (Pisum sativum) leaves; set-up: method as in Reinink and Borstlap, 1982; settings: 1 mM; ref Reinink and Borstlap, 1982; cited from earlier work
[8] = tested on: DHS activity from the spinach seedling extracts; experiment: DHS activity assay of crude extracts from de-etiolated spinach seedlings; format: biochemical, Spinacia oleracea; settings: 1 mM
Method: (§4) Spinach (S. oleracea) leaves were purchased at a local grocery store. For de-etiolated spinach seedlings, spinach was germinated on the soil and grown in the dark for 3 days, followed by exposure to normal growth light for 1 day for de-etiolation. More than 20 g of fully expanded mature leaves or whole de-etiolated seedlings were harvested and ground to a fine powder in a mortar and pestle with liquid nitrogen. After dissolving in 100 mL extraction buffer (20 mM HEPES [pH 7.6], 1 mM DTT and 0.1% β-mercaptoethanol) and filtrating with Miracloth, the samples were centrifuged at 10,000 × g for 10 min and subsequently at 50,000 × g for 30 min. […] The concentrated solution was desalted twice by Sephadex G50 column size-exclusion chromatography (GE Healthcare) into 1 mL of 50 mM HEPES (pH 7.4) and quantified by the Bradford assay ([Bradford, 1976]). […]
(§5) Unless otherwise noted, DHS enzymatic activity was monitored as previously described ([Liu et al., 2008]), with several optimizations for high-throughput assays with eight-strip PCR tubes and a thermal cycler. […] The absorbance of the pink supernatant was read at 549 nm with the microplate reader (Infinite 200 PRO, TECAN, Männedorf, Switzerland) to calculate DAHP production with the molar extinction coefficient at 549 nm (ε = 549 nm) of 4.5 × 10^4/M/cm. […]

[9] = tested on: total DHS activity in Arabidopsis leaf extracts; experiment: DHS activity assay of crude extracts from Arabidopsis mature leaves; format: biochemical, Arabidopsis thaliana; settings: 1 mM; Col-0
[10] = tested on: total DHS activity in spinach leaf extracts; experiment: DHS activity assay of crude extracts from spinach mature leaves; format: biochemical, Spinacia oleracea; settings: 1 mM
Method: as §4, §5

[11] = read-out: IC50 of root growth impairment
[12] = read-out: concentration giving 50% growth inhibition

AthDHS3, sequence (Q9SK84 entry or part of it): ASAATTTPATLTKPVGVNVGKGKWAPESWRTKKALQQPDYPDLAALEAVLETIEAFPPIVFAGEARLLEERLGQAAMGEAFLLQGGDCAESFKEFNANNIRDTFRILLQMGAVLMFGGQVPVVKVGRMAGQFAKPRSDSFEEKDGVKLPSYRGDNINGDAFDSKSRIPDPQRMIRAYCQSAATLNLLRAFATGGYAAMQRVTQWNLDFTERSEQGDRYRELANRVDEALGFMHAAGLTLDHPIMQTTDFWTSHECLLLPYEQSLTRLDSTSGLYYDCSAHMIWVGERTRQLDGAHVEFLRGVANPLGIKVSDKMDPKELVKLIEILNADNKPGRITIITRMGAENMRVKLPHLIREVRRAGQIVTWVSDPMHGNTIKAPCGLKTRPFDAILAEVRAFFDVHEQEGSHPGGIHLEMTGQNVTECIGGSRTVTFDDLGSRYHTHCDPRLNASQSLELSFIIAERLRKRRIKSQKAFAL
T2 sequence (Q00218 34-507): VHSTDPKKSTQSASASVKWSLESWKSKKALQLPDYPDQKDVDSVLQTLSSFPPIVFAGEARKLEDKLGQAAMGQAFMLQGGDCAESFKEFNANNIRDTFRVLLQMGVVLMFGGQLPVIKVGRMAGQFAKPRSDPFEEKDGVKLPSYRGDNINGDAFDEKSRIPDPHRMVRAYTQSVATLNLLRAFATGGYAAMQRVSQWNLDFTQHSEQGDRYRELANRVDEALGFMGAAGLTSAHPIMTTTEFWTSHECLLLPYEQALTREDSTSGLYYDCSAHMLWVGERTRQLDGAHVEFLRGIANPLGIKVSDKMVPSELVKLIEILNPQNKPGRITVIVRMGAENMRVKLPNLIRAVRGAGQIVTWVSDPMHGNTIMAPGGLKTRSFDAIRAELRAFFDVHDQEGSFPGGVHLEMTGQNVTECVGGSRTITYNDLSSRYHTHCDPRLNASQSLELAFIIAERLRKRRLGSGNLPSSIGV
T1 sequence (P29976 49-525): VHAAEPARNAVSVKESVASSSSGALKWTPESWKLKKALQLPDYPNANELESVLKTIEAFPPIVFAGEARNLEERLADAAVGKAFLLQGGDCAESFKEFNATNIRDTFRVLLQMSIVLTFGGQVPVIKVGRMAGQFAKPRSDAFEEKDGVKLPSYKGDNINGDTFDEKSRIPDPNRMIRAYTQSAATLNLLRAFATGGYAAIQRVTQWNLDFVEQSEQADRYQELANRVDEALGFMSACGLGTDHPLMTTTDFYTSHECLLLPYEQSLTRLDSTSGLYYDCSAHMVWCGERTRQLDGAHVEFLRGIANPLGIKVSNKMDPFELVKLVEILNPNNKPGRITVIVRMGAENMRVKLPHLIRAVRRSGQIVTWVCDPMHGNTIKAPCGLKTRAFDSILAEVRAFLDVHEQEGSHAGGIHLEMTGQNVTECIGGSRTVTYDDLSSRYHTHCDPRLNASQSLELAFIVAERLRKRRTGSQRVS

| SMILES | observed DHS activity of the enzyme mixtures versus theoretically calculated activity [1] | IC50 [2, 11] [µM] | IC50 [2, 12] [µM] | effect on AthDHS1 activity (in words) (AthDHS1) | IC50 (AthDHS2) [µM] | effect on AthDHS3 activity (in words) (AthDHS3) | IC50 (AthDHS1) [µM] | effect on DHS activity of de-etiolated spinach seedling extract [8] | effect on total DHS activity of Arabidopsis mature leaf extract [9] | effect on total DHS activity of spinach mature leaf extract [10] | further results |
| --- | --- | --- | --- | --- | --- | --- | --- | --- | --- | --- | --- |
| N[C@@H](Cc1c[nH]c2ccccc12)C(=O)O [Trp, L-tryptophan] | significantly higher than theoretically calculated activities | 140 | > 300 | significantly activated | 225 | activated |  |  |  |  | concentration that specifically impaired root growth ([2]; dhs3 mutant): ≥ 100 µM; effect on DHS activity [3]: activation; inhibition of DHS activity [4]: 50% |
| N[C@@H](Cc1ccc(O)cc1)C(=O)O [Tyr, L-tyrosine] | significantly higher than theoretically calculated activities | 79 | > 300 | significantly activated |  |  |  |  |  |  | concentration that specifically impaired root growth ([2]; dhs1 mutant): ≥ 100 µM; effect of the added compound on Trp-mediated root growth inhibition of dhs3 ([2]; media with 300 µM Trp, AAAs added at 300 µM, shikimate at 500 µM): not recovered; phenotype of newly growing leaves ([5]; Col-0 and dhs3): cup-like shape; shoot phenotype ([5]; dhs1): very small and pale; cup-shaped leaf phenotype ([5]; dhs2): did not appear; effect on shikimate level [6]: did not alter the shikimate level; inhibition of DHS activity [7]: 60% |
| O=C(O)/C=C/c1ccc(O)c(O)c1 [caffeate] |  |  |  | completely inhibited |  | completely inhibited | 49.7 | significantly reduced | more than half | more than half | IC50 (AthDHS3): 53.4 µM |
| C=C(O[C@@H]1C=C(C(=O)O)C=C[C@H]1O)C(=O)O [chorismate] |  |  |  | completely inhibited | 52.5 | completely inhibited | 97.3 | significantly reduced | more than half | more than half | effect on AthDHS2 activity (in words) (AthDHS2; 1 mM effector): completely inhibited; IC50 (AthDHS3; varied effector concentrations, read-out: IC50 of AthDHS3 inhibition): 83 µM |
